The numbers were not newly measured in paper PMC7150867, “Molecular Imaging of Galectin-1 Expression as a Biomarker of Papillary Thyroid Cancer by Using Peptide-Functionalized Imaging Probes” (Biology, 2020), which cites them from elsewhere.

The text on the data set: To validate the effectiveness of gal-1-targeted peptides, another type of probe and therefore imaging of thyroid cancer was explored. Owing to its high sensitivity, in the order of nanomolar, resolution in the range of 50–130 µm, and nonionizing radiation, FLI appears as a promising imaging technique in the field of biomedical research and clinical diagnosis of a wide range of pathologies. In oncology, FLI enables early diagnosis and the depiction of the extent of cancer invasion, improving the accuracy of tumor resection.

The LogP is a log measure of how a compound divides between an organic and an aqueous phase. For “YSWHIDIVAPRN [Peptide P7, gal-1-targeted 12-mer linear peptide identified by phage display]”, the LogP is reported as 1.02. Besides, the LogD7.4 (pH 7.4) was −7.63.
